From PubChem BioAssay AID792 (PCMD, 2007)
Records with an inconclusive call do not appear. The source made the active and inactive calls. The rule behind the calls is not given here.

Molecular target: S. cerevisiae eIF2B mutant, luciferase reporter luminescence
Assay: eIF2B reporter inhibitors in yeast strains, dose response, S. cerevisiae, mutant, wild-type, luminescence, growth (AID 792)
[1] = measured here: mutant yeast growth
[2] = S. cerevisiae wild-type, luminescence

| SMILES | IC50 | IC50 [1] | IC50 [2] |
| --- | --- | --- | --- |
| O=C(c1ccc2c(c1)OCO2)N(c1ccc(F)cc1)C1C=CS(=O)(=O)C1 (stereo not drawn) | > 100 µM (inactive) | > 100 µM |  |
| CCOC(=O)CC(=O)CSc1nc(C)cc(-c2cccnc2)c1C#N | > 100 µM (inactive) | > 100 µM |  |
| CCCCN1C(=O)CN(CCc2ccccc2)C(=O)C1c1ccc(OC)cc1 (stereo not drawn) | > 100 µM (inactive) | > 100 µM |  |
| Cc1cc(C)n(-c2cc(C(C)(C)C)nc3c(-c4ccc(Cl)cc4)cnn23)n1 | > 100 µM (inactive) | > 100 µM |  |
| CCOc1ccc(S(=O)(=O)N2CCC(C(N)=O)CC2)c2ccccc12 | > 100 µM (inactive) | > 100 µM |  |
| O=C(c1c[nH]c2ccc(S(=O)(=O)N3CCOCC3)cc2c1=O)N1CCCC1 | > 100 µM (inactive) | > 100 µM |  |
| Cc1nnc2sc(-c3ccncc3)nn12 | > 100 µM (inactive) | > 100 µM |  |
| COc1ccccc1-c1nnc2sc(COc3ccc(Cl)cc3)nn12 | > 100 µM (inactive) | > 100 µM |  |
| COc1ccccc1CC(=O)N1CCN(c2cccc(C(F)(F)F)c2)CC1 | > 100 µM (inactive) | > 100 µM |  |
| Cc1cc(=O)oc2ccc(OCC(=O)N3CCc4ccccc43)cc12 | > 100 µM (inactive) | > 100 µM |  |
| CCOC(=O)C1CCN(c2ncnc3c2oc2ccccc23)CC1 | > 100 µM (inactive) | > 100 µM |  |
| CCOC(=O)c1sc(N)c(C#N)c1CSc1nc2ccc(C)cc2[nH]1 | > 100 µM (inactive) | > 100 µM |  |
| CN(C)P(=O)(C(Cl)=C(N1CCCCC1)N1CCCCC1)N(C)C | > 100 µM (inactive) | > 100 µM |  |
| COC(=O)c1ccccc1NC(=O)CSc1nc(-c2ccco2)cc(C(F)(F)F)n1 | > 100 µM (inactive) | > 100 µM |  |
| CCOC(=O)COc1ccc(S(=O)(=O)NCc2ccco2)cc1 | > 100 µM (inactive) | > 100 µM |  |
| CN1CCc2nc(SCC(=O)Nc3ccc(Cl)cc3)c(C#N)cc2C1 | > 100 µM (inactive) | > 100 µM |  |
| CCOc1cc(-c2nc(-c3ccc(C)nc3OCC)no2)cc(OCC)c1OCC | > 100 µM (inactive) | > 100 µM |  |
| C=CCN1CC(c2nc3ccccc3n2Cc2cccc3ccccc23)CC1=O (stereo not drawn) | > 100 µM (inactive) | > 100 µM |  |
| Cn1c(SC2C(=O)CC(C)(C)CC2=O)nnc1-c1ccco1 | > 100 µM (inactive) | > 100 µM |  |

| SMILES | IC50 | IC50 [1] | IC50 [2] |
| --- | --- | --- | --- |
| COc1ccc(CCNC(=O)c2ccc(N3CCCC3=O)cc2)cc1OC | > 100 µM (inactive) | > 100 µM | > 100 µM |
| CC(=O)Nc1ccc(C(=O)NC2CCCC2)cc1 | > 100 µM (inactive) | > 100 µM |  |
| O=C(CSc1nc(-c2ccco2)cc(C(F)(F)F)n1)Nc1ccccc1C(F)(F)F | > 100 µM (inactive) | > 100 µM |  |
| NC(=O)CSc1nnc(-c2ccco2)n1N | > 100 µM (inactive) | > 100 µM |  |
| O=C(CSc1nnc(-c2ccccn2)n1-c1ccccc1)Nc1ccc2c(c1)OCO2 | > 100 µM (inactive) | > 100 µM |  |
| CC(C)OC(=O)CCc1nc2ccccc2[nH]c1=O | > 100 µM (inactive) | > 100 µM |  |
| CSc1ccccc1NC(=O)c1cc(-c2cccs2)on1 | > 100 µM (inactive) | > 100 µM |  |
| COc1cc(S(=O)(=O)N(Cc2cccnc2)Cc2ccco2)ccc1-n1cnnn1 | > 100 µM (inactive) | > 100 µM | > 100 µM |
| CCC(=O)Nc1c2c(nn1-c1ccc(C)cc1C)CSC2 | > 100 µM (inactive) | > 100 µM |  |
| COc1ccc(Nc2oc(COc3cccc(C)c3)nc2C#N)cc1 | > 100 µM (inactive) | > 100 µM |  |
| N#CCN1CCN(CC(=O)Nc2ccc(OCc3ccccc3)cc2)CC1 | > 100 µM (inactive) | > 100 µM |  |
| C=CCc1c(C)nc(SC(C)C)[nH]c1=O | > 100 µM (inactive) | > 100 µM |  |
| CCOC(=O)N1CCN(C(=O)c2nn(-c3cc(OC)cc(OC)c3)c(=O)c3ccccc23)CC1 | > 100 µM (inactive) | > 100 µM |  |
| COc1ccc(C(=O)COC(=O)CN2C(=O)NC(C)(C)C2=O)cc1OC | > 100 µM (inactive) | > 100 µM |  |
| CCCC(=O)Nc1sc(C(=O)OC)c(C)c1C(N)=O | > 100 µM (inactive) | > 100 µM |  |
| Cc1cc(=O)[nH]c(N=N/C(=N/Nc2ccc(O)cc2)c2ccccc2)n1 | inactive | > 100 µM | 45.2 µM |
| CN(Cc1c(F)cccc1Cl)c1ccc(S(=O)(=O)N2CCOCC2)cn1 | > 100 µM (inactive) | > 100 µM |  |
| O=c1/c(=C/c2ccc(CNS(=O)(=O)c3ccccc3)o2)sc2n1CCN=2 | > 100 µM (inactive) | > 100 µM |  |
| CC(C)CNC(=O)c1cc2nc(C3CC3)cc(C(F)(F)F)n2n1 | > 100 µM (inactive) | > 100 µM |  |

| SMILES | IC50 | IC50 [1] | IC50 [2] |
| --- | --- | --- | --- |
| Cn1ncc(C#N)c1/N=C/N1CCOCC1 | > 100 µM (inactive) | > 100 µM |  |
| Cc1cccc2nc(CSc3nnc4ccccn34)cn12 | > 100 µM (inactive) | > 100 µM |  |
| COc1cccc(C2NC(CC(C)C)(C(=O)O)C3C(=O)N(Cc4ccccc4)C(=O)C23)c1O (stereo not drawn) | > 100 µM (inactive) | > 100 µM |  |
| COc1cc(/C=C2\C(=O)N(CCC#N)N=C2C)c(Br)cc1OC(C)C | > 100 µM (inactive) | > 100 µM |  |
| COc1ccc(OC)c2c(N3CCN(C)CC3)cc(C(F)(F)F)nc12 | > 100 µM (inactive) | > 100 µM |  |
| Cc1cc(NC(=O)CN2CCCC(C)C2)n(-c2nc3ccccc3s2)n1 (stereo not drawn) | > 100 µM (inactive) | > 100 µM |  |
| COCCN1CN(S(=O)(=O)c2ccc(Cl)cc2)c2nc3ccccc3nc21 | > 100 µM (inactive) | > 100 µM |  |
| O=C(O)c1ccc(CSc2n[nH]c(-c3ccco3)n2)cc1 | > 100 µM (inactive) | > 100 µM |  |
| CCC(=O)NCCSc1c[nH]c2ccccc12 | > 100 µM (inactive) | > 100 µM |  |
| O=C1CC(O)(C(F)F)Oc2ccc3ccccc3c21 (stereo not drawn) | > 100 µM (inactive) | > 100 µM |  |
| CCCCOc1ccc(OCCCC)c2c1NC1(N2)C(=O)N(C(C)=O)c2ccccc21 | > 100 µM (inactive) | > 100 µM |  |
| COc1ccc2c(c1)CCc1c(C(=O)N3CC4(C)CC3CC(C)(C)C4)noc1-2 (stereo not drawn) | > 100 µM (inactive) | > 100 µM |  |
| Cc1ccc(NC(=O)CN(C)C(=O)CSc2nc3ccccc3o2)cc1 | > 100 µM (inactive) | > 100 µM |  |
| Cc1ccc(C)c(N=C2CCCN2Cc2ccccc2)c1C#N | > 100 µM (inactive) | > 100 µM |  |
| Cc1nc(-c2cccc(S(=O)(=O)N3CC(C)CC(C)C3)c2)cs1 (stereo not drawn) | > 100 µM (inactive) | > 100 µM |  |
| O=c1c(Cl)c(N2CCCCC2)cnn1-c1nc2ccccc2[nH]1 | inactive | > 100 µM | 3.69 µM |
| c1ccc2c(c1)CNc1ccccc1O2 | > 100 µM (inactive) | > 100 µM |  |
| COC(=O)CC1Oc2ccccc2N(Cc2ccc(C)cc2)C1=O (stereo not drawn) | > 100 µM (inactive) | > 100 µM |  |
| O=C(Nc1ccc2nc(-c3ccc4nc[nH]c4c3)[nH]c2c1)c1cccs1 | > 100 µM (inactive) | > 100 µM |  |
